What all share (type): cell-based
The target of experiment [1] is T1, Sodium-dependent neutral amino acid transporter B(0)AT2 (Homo sapiens, UniProt Q9H2J7).
T1 sequence (Q9H2J7 whole entry): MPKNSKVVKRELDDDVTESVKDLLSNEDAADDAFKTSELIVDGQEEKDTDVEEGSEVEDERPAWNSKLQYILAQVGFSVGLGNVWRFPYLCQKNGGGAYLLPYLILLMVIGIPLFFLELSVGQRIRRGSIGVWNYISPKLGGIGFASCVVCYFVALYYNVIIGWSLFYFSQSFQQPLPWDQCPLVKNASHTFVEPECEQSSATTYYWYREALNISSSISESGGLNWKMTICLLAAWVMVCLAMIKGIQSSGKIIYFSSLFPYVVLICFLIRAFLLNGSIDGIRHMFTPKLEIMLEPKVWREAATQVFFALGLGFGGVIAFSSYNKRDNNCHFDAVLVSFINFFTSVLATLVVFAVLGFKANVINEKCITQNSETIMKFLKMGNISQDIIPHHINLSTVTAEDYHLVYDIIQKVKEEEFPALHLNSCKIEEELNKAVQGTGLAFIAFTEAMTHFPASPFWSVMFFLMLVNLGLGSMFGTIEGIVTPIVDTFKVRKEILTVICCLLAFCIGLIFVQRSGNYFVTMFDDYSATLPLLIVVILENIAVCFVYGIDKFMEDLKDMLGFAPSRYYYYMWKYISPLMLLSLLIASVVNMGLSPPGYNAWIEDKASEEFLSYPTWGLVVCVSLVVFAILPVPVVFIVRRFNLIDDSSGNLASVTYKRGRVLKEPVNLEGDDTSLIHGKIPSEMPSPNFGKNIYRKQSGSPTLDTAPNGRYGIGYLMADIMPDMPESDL
The experiment can be described thus: Inhibition of eGFP-tagged human B0AT2 expressed in HEK293 cells measured within 10 mins by [3H]proline uptake assay.

The target in experiment [2] is T2, Sodium-dependent neutral amino acid transporter B(0)AT2 (Homo sapiens) (UniProt Q9H2J7).
T2 sequence (whole entry): T1 sequence (Q9H2J7 whole entry)
In words: Inhibition of eGFP-tagged human B0AT2 expressed in HEK293 cells at 5 mM measured within 10 mins by [3H]proline uptake assay.

The next experiment deals with Histamine H1 receptor (Homo sapiens, UniProt P35367). The experiment can be described thus: Displacement of [3H]mepyramine from human histamine H1 receptor expressed in Sf9 cells by scintillation counting method.
For experiment [3], the target named is T2, Sodium-dependent neutral amino acid transporter B(0)AT2 (Homo sapiens). The experiment can be described thus: Activation of eGFP-tagged human B0AT2 expressed in HEK293 cells assessed as induction of inward current at 100 uM by patch clamp assay.
Experiment [4] has the same target. In words: Inhibition of eGFP-tagged human B0AT2 expressed in HEK293 cells assessed as reduction in proline-induced inward current at 100 uM by patch clamp assay. On the technique in general: Patch clamp records ionic current or voltage across a cell membrane.
Experiment [5] shares this target. The experiment can be described thus: Reversible inhibition of eGFP-tagged human B0AT2 expressed in HEK293 cells assessed as reduction in proline-induced inward current at 100 uM measured post drug wash out by patch clamp assay.

pIC50, pKi: −log10 of the molar value. The source made the active and inactive calls. The calls are words filed in the database; no cut-off is given here.

Chain of Histamine H1 receptor (P35367 whole entry): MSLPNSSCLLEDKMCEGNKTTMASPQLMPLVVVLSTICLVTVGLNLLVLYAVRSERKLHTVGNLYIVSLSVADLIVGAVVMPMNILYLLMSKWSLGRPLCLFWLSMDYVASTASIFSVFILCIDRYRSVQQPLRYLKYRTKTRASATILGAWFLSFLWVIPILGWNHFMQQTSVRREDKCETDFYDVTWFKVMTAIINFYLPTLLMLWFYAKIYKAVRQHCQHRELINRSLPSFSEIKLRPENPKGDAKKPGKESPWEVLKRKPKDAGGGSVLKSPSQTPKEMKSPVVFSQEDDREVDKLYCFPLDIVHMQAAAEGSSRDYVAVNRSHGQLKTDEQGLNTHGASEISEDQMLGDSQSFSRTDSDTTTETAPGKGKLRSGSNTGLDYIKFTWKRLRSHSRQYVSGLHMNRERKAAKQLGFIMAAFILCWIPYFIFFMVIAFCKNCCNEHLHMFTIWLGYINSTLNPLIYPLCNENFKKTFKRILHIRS

One may read the pIC50 as the negative decadic logarithm of the IC50, by convention in mol/L. High values mean a small IC50, low ones a large IC50. The compound `CC(C)C(=O)N1CCC(=C2c3ccc(Cl)cc3CCc3cccnc32)CC1` had a pIC50 in experiment [1] of 4.38.

In experiment [1], `CCOC(=O)N1CCC(=C2c3ccc(Cl)cc3CCc3c(CO)ccnc32)CC1` showed a pIC50 of 4.74.

For the compound `CCNC(=O)N1CCC(=C2c3ccc(Cl)cc3CCc3cccnc32)CC1`, the pIC50 in experiment [1] is 4.46.

In experiment [1], `CCOC(=O)N1CCC(=C2c3ccc(Cl)cc3CCc3cc(O)cnc32)CC1` had a pIC50 of 4.75.

Consider `CCSC(=O)N1CCC(=C2c3ccc(Cl)cc3CCc3cccnc32)CC1`, for which, in experiment [1], the pIC50 is 5.28.

Regarding `CCCCCC(=O)N1CCC(=C2c3ccc(Cl)cc3CCc3cccnc32)CC1`, in experiment [1], the pIC50 was 5.28.

`O=C(Oc1ccccc1)N1CCC(=C2c3ccc(Cl)cc3CCc3cccnc32)CC1`: the pIC50 in experiment [1] was below 4.10.

In the case of `CCOC(=O)N1CCC(=C2c3ccc(Cl)cc3CCc3c(C#N)ccnc32)CC1`, in experiment [1], the pIC50 is below 4.10.

In turn, `COC(=O)N1CCC(=C2c3ccc(Cl)cc3CCc3cccnc32)CC1` had a pIC50 in experiment [1] of 4.71.

As to `O=C(OCc1ccccc1)N1CCC(=C2c3ccc(Cl)cc3CCc3cccnc32)CC1`, the pIC50 in experiment [1] was below 4.10.

In experiment [1], `Cc1cncc(CN2CCC(=C3c4ccc(Cl)cc4CCc4cccnc43)CC2)c1` [RUPATADINE] had a pIC50 below 4.40.

In experiment [1], `CCC(=O)N1CCC(=C2c3ccc(Cl)cc3CCc3cccnc32)CC1` gave a pIC50 of 4.44.

Broadly, the inhibition is the share of the control response that was lost under treatment. In turn, `NC1(C(=O)O)CC2CCC1C2` (stereo unspecified) had an inhibition in experiment [2] of 80%.

A word on the pKi: it is the Ki on a negative log10 scale, so that one unit is a factor of ten. Turning to `O=C(CC1CCCCC1)N1CCC(=C2c3ccc(Cl)cc3CCc3cccnc32)CC1`, the negative-log Ki (pKi) on Histamine H1 receptor is 6.36. In experiment [1], this compound gave a pIC50 of 5.24.

In experiment [1], `CCCS(=O)(=O)N1CCC(=C2c3ccc(Cl)cc3CCc3cccnc32)CC1` gave a pIC50 below 4.10.

On to `CC(=O)N1CCC(=C2c3ccc(Cl)cc3CCc3cccnc32)CC1` [SCH-37370], for which the pIC50 in experiment [1] is 4.26.

`C/C=C/C(=O)N1CCC(=C2c3ccc(Cl)cc3CCc3cccnc32)CC1` showed a pKi at Histamine H1 receptor of 6.82. In experiment [1], this compound had a pIC50 of 5.30.

Compound `CC(C)CC(=O)N1CCC(=C2c3ccc(Cl)cc3CCc3cccnc32)CC1` had a pKi at Histamine H1 receptor of 6.54. In addition, the pIC50 in experiment [1] is 4.97.

For the compound `Clc1ccc2c(c1)CCc1cccnc1C2=C1CCNCC1` [DESLORATADINE], the pIC50 in experiment [1] is 3.76.

`CC(C)C[C@@H](N)C(=O)N1CCC(=C2c3ccc(Cl)cc3CCc3cccnc32)CC1` showed a pKi on Histamine H1 receptor of 5.33. Besides, in experiment [1], the pIC50 is 5.11.

In turn, `CCCOC(=O)N1CCC(=C2c3ccc(Cl)cc3CCc3cccnc32)CC1` had a pIC50 in experiment [1] of 5.34.

`CCCCC(=O)N1CCC(=C2c3ccc(Cl)cc3CCc3cccnc32)CC1`: the pKi on Histamine H1 receptor is 6.83. The compound also gave a pIC50 in experiment [1] of 5.47.

Compound `CCOC(=O)N1CCC(=C2c3ccc(Cl)cc3CCc3cc(OC)cnc32)CC1` had a pKi on Histamine H1 receptor of 5.71. For the same compound, the pIC50 in experiment [1] is 5.35.

`NCC(=O)N1CCC(=C2c3ccc(Cl)cc3CCc3cccnc32)CC1` had a pIC50 in experiment [1] of 4.64.

`CCOC(=O)N1CCC(=C2c3ccc(Cl)cc3CCc3ccc(CO)nc32)CC1`: the pIC50 in experiment [1] is below 4.10.

Turning to `CC(C)COC(=O)N1CCC(=C2c3ccc(Cl)cc3CCc3cccnc32)CC1`, on Histamine H1 receptor, the pKi is 5.89. This compound also had a pIC50 in experiment [1] of 5.11.

The compound `NCCC(=O)N1CCC(=C2c3ccc(Cl)cc3CCc3cccnc32)CC1` had a pIC50 in experiment [1] of 4.73.

`COCC(=O)N1CCC(=C2c3ccc(Cl)cc3CCc3cccnc32)CC1` showed a pIC50 in experiment [1] of 4.58.

With `CCOC(=O)N1CCC(=C2c3ccc(Cl)cc3CCc3ccc(C#N)nc32)CC1`, the pIC50 in experiment [1] is below 4.10.

For the compound `CCCC(=O)N1CCC(=C2c3ccc(Cl)cc3CCc3cccnc32)CC1`, the pKi on Histamine H1 receptor was 6.77. The compound also showed a pIC50 in experiment [1] of 5.31.

With `O=C(Cc1ccccc1)N1CCC(=C2c3ccc(Cl)cc3CCc3cccnc32)CC1`, the pIC50 in experiment [1] is 4.79.

In turn, `C=CCOC(=O)N1CCC(=C2c3ccc(Cl)cc3CCc3cccnc32)CC1` showed a pIC50 in experiment [1] of 5.31.

In the case of `CCOC(=O)N1CC=C(C2c3ccc(Cl)cc3CCc3cccnc32)CC1` (stereo unspecified), the pIC50 in experiment [1] is 4.83.

In experiment [1], `CC(C)[C@@H](N)C(=O)N1CCC(=C2c3ccc(Cl)cc3CCc3cccnc32)CC1` had a pIC50 of 4.41.

For the compound `CCOC(=O)N1CCC(=C2c3ccc(Cl)cc3CCc3ccc(C(=O)OC)nc32)CC1`, the pKi at Histamine H1 receptor is below 5.00. In experiment [1], the pIC50 was 4.91.

Turning to `CCOC(=O)N1CCC(=C2c3ccc(Cl)cc3CCc3cccnc32)CC1` [LORATADINE], the outcome in experiment [3] was inactive. Also, the inhibition entry in experiment [4] and in experiment [5] was “Active” in each case. The pIC50 in experiment [1] is 5.40.

As for `CN1CCC(=C2c3ccc(Cl)cc3CCc3cccnc32)CC1`, the negative logarithm of the IC50 (pIC50) in experiment [1] is below 4.10.

For the compound `CC(C)OC(=O)N1CCC(=C2c3ccc(Cl)cc3CCc3cccnc32)CC1`, the pIC50 in experiment [1] is 4.77.

In experiment [1], `CC(C)(C)OC(=O)N1CCC(=C2c3ccc(Cl)cc3CCc3cccnc32)CC1` had a pIC50 below 4.10.

Values taken from ChEMBL document CHEMBL3352018 (J Med Chem, 2014).
